Data as given in patent publication US20060241114A1, “Derivatives of azasugars as anticancer agents” (priority 2003, published 2006).

Columns and labels:
[1] = system: HT29 (colorectal adenocarcinoma); assay: In vitro growth inhibition screen (sulphorhodamine B), HT29; type: cell-based, human; settings: HT29 cells, incubated for 48 hours, sulphorhodamine B dye; read-out: GI50 (concentration which inhibits the cell growth by 50%), HT29 Colorectal adenocarcinoma
Protocol: (§1) Each agent was tested over a broad concentration range (ten-fold dilutions starting from ≧100 μM to 10 nM) against 6 human cancer cell lines which was comprised of different tumor types. These are DU145 (prostate carcinoma), HT29 (colorectal adenocarcinoma), LOX (melanoma), MCF7 (breast adenocarcinoma), MCF7ADR (adriamycin resistant breast adenocarcinoma), and U251 (human glioblastoma). A standard compound doxorubicin was tested in each assay as a positive control. The cells were maintained in growing condition in RPMI 1640 medium containing 10% fetal calf serum and incubated at 37° C. under 5% CO2 atmosphere. All cell lines were inoculated onto a series of standard 96-well microtitre plate on day zero, followed by twenty four-hour incubation in the absence of test compound. The inoculation densities in the screen were as per Monk et al., (1991) J. Natl. Cancer Inst., 83, 757-766. All NCEs were dissolved in DMSO and diluted further in culture medium. An aliquot of each dilution was added to the growing cells in 96 well plates and incubated for 48 hours. After incubation, the assay was terminated by adding 50 μL of trichloroacetic acid (TCA) and incubating at 4° C. for 30 min. The precipitated cells were washed and stained with sulphorhodamine B dye for 30 min and the excess dye was washed off with acetic acid. Adsorbed dye was solubilised in Tris base (alkaline pH) and quantitated by measuring the OD at […] in ELISA READER. GI50 (concentration which inhibits the cell growth by 50%) was calculated according to Boyd and Paull, (1995) Drug Dev. Res., 34, 91-109.

[2] = system: MCF7 (breast adenocarcinoma); assay: In vitro growth inhibition screen (sulphorhodamine B), MCF7; type: cell-based, human; settings: MCF7 cells, incubated for 48 hours, sulphorhodamine B dye; read-out: GI50 (concentration which inhibits the cell growth by 50%), MCF7 Breast adenocarcinoma
Protocol: as §1

[3] = system: LOX (melanoma); assay: In vitro growth inhibition screen (sulphorhodamine B), LOX; type: cell-based, human; settings: LOX cells, incubated for 48 hours, sulphorhodamine B dye; read-out: GI50 (concentration which inhibits the cell growth by 50%), LOX Melanoma
Protocol: as §1

[4] = system: DU145 (prostate carcinoma); assay: In vitro growth inhibition screen (sulphorhodamine B), DU145; type: cell-based, human; settings: DU145 cells, incubated for 48 hours, sulphorhodamine B dye; read-out: GI50 (concentration which inhibits the cell growth by 50%), DU145 Prostate carcinoma
Protocol: as §1

[5] = system: MCF7ADR (adriamycin resistant breast adenocarcinoma); assay: In vitro growth inhibition screen (sulphorhodamine B), MCF7ADR; type: cell-based, human; settings: MCF7ADR cells, incubated for 48 hours, sulphorhodamine B dye; read-out: GI50 (concentration which inhibits the cell growth by 50%), MCF7ADR Adriamycin Resistant Breast adenocarcinoma
Protocol: as §1

[6] = system: U251 (human glioblastoma); assay: In vitro growth inhibition screen (sulphorhodamine B), U251; type: cell-based; settings: U251 cells, incubated for 48 hours, sulphorhodamine B dye; read-out: GI50 (concentration which inhibits the cell growth by 50%), U251 Human glioblastoma astrocytoma
Protocol: as §1

| Compound | GI50 [1] | GI50 [2] | GI50 [3] | GI50 [4] | GI50 [5] | GI50 [6] |
| --- | --- | --- | --- | --- | --- | --- |
| 2,3,4-Tri-O-benzyl-6-N-[3-{2-iminocarbonyl aminoethyl)-indolyl]-N-propyl-D-gluco-δ-lactam [Compound No. 78] | 33.6 µM | 9.2 µM | 45.1 µM | 57.3 µM | 29.8 µM | 4.3 µM |
| 6-N-{2-[1,5-Dideoxy-1,5-imino-glucit-6-ol]acetyl}-N-propyl-D-gluco-δ-lactam [Compound No. 67] | 106 µM | 107 µM | 67.6 µM | 81.6 µM | 75.4 µM | 91.5 µM |
| C=CCN1C(=O)[C@H](OCc2ccccc2)[C@@H](OCc2ccccc2)[C@H](OCc2ccccc2)[C@H]1COS(=O)(=O)c1ccc(C)cc1 [Compound No. 1, N-Allyl-6-O-(p-toluenesulphonyl)-2,3,4-tri-O-benzyl-D-gluco-δ-lactam] | 203 µM | 378 µM | > 624 µM | 364 µM | > 624 µM | > 624 µM |
| CCCN1C(=O)[C@H](OCc2ccccc2)[C@@H](OCc2ccccc2)[C@H](OCc2ccccc2)[C@H]1CNC(=S)Nc1ccc2ccccc2c1 [Compound No. 2, 2,3,4-Tri-O-benzyl-6-N-{[2-naphthyl]aminothiocarbonylamino}-N-propyl-D-gluco-δ-lactam] | 137 µM | 175 µM | 40.9 µM | 151 µM | 229 µM | 172 µM |
| CCCN1C(=O)C(OCc2ccccc2)C(OCc2ccccc2)C(OCc2ccccc2)C1CNC(=O)Nc1ccc(Cl)cc1 [Compound No. 3, 2,3,4-Tri-O-benzyl-6-N-{[4-chlorophenyl]aminocarbonylamino}-N-propyl-D-gluco-δ-lactam] | 6.1 µM | 0.8 µM | 2.1 µM | 2 µM | 8.2 µM | 1.1 µM |
| CCCN1C(=O)C(OCc2ccccc2)C(OCc2ccccc2)C(OCc2ccccc2)C1CNC(=O)Nc1ccc(OC)cc1 [Compound No. 4, 2,3,4-Tri-O-benzyl-6-N-{[p-methoxyphenyl]aminocarbonylamino}-N-propyl-D-gluco-δ-lactam] | 49.4 µM | 13.6 µM | 112 µM | 116 µM | 115 µM | 16.8 µM |
| CCCN1C(=O)C(OCc2ccccc2)C(OCc2ccccc2)C(OCc2ccccc2)C1CNC(=O)Nc1ccc([N+](=O)[O-])cc1 [Compound No. 5, 2,3,4-Tri-O-benzyl-6-N-{[p-nitrophenyl]aminocarbonylamino}-N-propyl-D-gluco-δ-lactam] | 14.6 µM | 11.4 µM | 10.4 µM | 29.6 µM | 33.9 µM | 46.9 µM |
| CCCN1C(=O)[C@H](OCc2ccccc2)[C@@H](OCc2ccccc2)[C@H](OCc2ccccc2)[C@H]1CNC(=O)Nc1ccc(C)cc1 [Compound No. 6, 2,3,4-Tri-O-benzyl-6-N-{[p-tolyl]aminocarbonylamino}-N-propyl-D-gluco-δ-lactam] | 47.2 µM | 433 µM | 67.4 µM | 50.1 µM | 110 µM | 82.3 µM |
| CCCN1C(=O)[C@H](OCc2ccccc2)[C@@H](OCc2ccccc2)[C@H](OCc2ccccc2)[C@H]1CNC(=O)Nc1ccc(Cl)cc1C(F)(F)F [Compound No. 7, 2,3,4-Tri-O-benzyl-6-N-{[4-chloro-2-trifluoromethylphenyl]aminocarbonylamino}-N-propyl-D-gluco-δ-lactam] | 68.6 µM | > 353 µM | 10.8 µM | > 353 µM | 58.4 µM | 63.5 µM |
| CCCN1C(=O)[C@H](OCc2ccccc2)[C@@H](OCc2ccccc2)[C@H](OCc2ccccc2)[C@H]1CNC(=S)NC(C)C [Compound No. 8, 2,3,4-Tri-O-benzyl-6-N-{[isopropyl]aminothiocarbonylamino}-N-propyl-D-gluco-δ-lactam] | 9 µM | 1.3 µM | 2.2 µM | 3.4 µM | 0.6 µM | 2.5 µM |
| CCCN1C(=O)[C@H](OCc2ccccc2)[C@@H](OCc2ccccc2)[C@H](OCc2ccccc2)[C@H]1CNC(=S)Nc1ccccc1 [Compound No. 9, 2,3,4-Tri-O-benzyl-6-N-{[phenyl]aminothiocarbonylamino}-N-propyl-D-gluco-δ-lactam] | 40 µM | 35.8 µM | 6.9 µM | 22.1 µM | 13.9 µM | 20.2 µM |
| CCCN1C(=O)[C@H](OCc2ccccc2)[C@@H](OCc2ccccc2)[C@H](OCc2ccccc2)[C@H]1CNC(=O)Nc1ccccc1 [Compound No. 10, 2,3,4-Tri-O-benzyl-6-N-{[phenyl]aminocarbonylamino}-N-propyl-D-gluco-δ-lactam] | 36.9 µM | 34.7 µM | 12.5 µM | 39.3 µM | 16.7 µM | 16.4 µM |

Next, values leading:

| GI50 [1] | GI50 [2] | GI50 [3] | GI50 [4] | GI50 [5] | GI50 [6] | Compound |
| --- | --- | --- | --- | --- | --- | --- |
| 6.8 µM | 9.9 µM | 13.6 µM | 43.7 µM | 16 µM | 10.3 µM | 2,3,4-Tri-O-benzyl-6-(trifluoromethylacetamido)-N-propyl-D-gluco-δ-lactam [Compound No. 51] |
| 35 µM | > 380 µM | 281 µM | 98.4 µM | > 380 µM | > 380 µM | 2,3,4-Tri-O-benzyl-6-N-{[isopropyl]aminocarbonylamino}-1,5-dideoxy-1,5-imino-N-propyl glucitol [Compound No. 38] |
| 2.7 µM | 2.4 µM | 2.1 µM | 2.7 µM | 2.6 µM | 3.2 µM | CCCN1C(=O)[C@H](OCc2ccccc2)[C@@H](OCc2ccccc2)[C@H](OCc2ccccc2)[C@H]1CNC(=O)Nc1ccc(F)cc1 [Compound No. 11, 2,3,4-Tri-O-benzyl-6-N-{[p-fluorophenyl]aminocarbonylamino}-N-propyl-D-gluco-δ-lactam] |
| 29.3 µM | 88.2 µM | 41.6 µM | 48.7 µM | 35 µM | 61.8 µM | CCCN1C(=O)C(OCc2ccccc2)C(OCc2ccccc2)C(OCc2ccccc2)C1CNC(=O)NS(=O)(=O)c1ccc(Cl)cc1 [Compound No. 12, 2,3,4-Tri-O-benzyl-6-N-{[p-chlorophenylsulfonyl]aminocarbonylamino}-N-propyl-D-gluco-δ-lactam] |
| 3.6 µM | 6.4 µM | 3.1 µM | 4.2 µM | 4.6 µM | 6.4 µM | CCCN1C(=O)[C@H](OCc2ccccc2)[C@@H](OCc2ccccc2)[C@H](OCc2ccccc2)[C@H]1CNC(=O)Nc1cccc(Cl)c1 [Compound No. 13, 2,3,4-Tri-O-benzyl-6-N-{[3-chlorophenyl]aminocarbonylamino}-N-propyl-D-gluco-δ-lactam] |
| 30.4 µM | 35.7 µM | 7.6 µM | 21 µM | 6.7 µM | 15 µM | CCCN1C(=O)[C@H](OCc2ccccc2)[C@@H](OCc2ccccc2)[C@H](OCc2ccccc2)[C@H]1CNC(=O)Nc1cccc(C(C)=O)c1 [Compound No. 14, 2,3,4-Tri-O-benzyl-6-N-{[3-acetylphenyl]aminocarbonylamino}-N-propyl-D-gluco-δ-lactam] |
| 41.9 µM | 29.9 µM | 57.2 µM | 44.4 µM | 53.8 µM | 40.8 µM | CCCN1C(=O)C(OCc2ccccc2)C(OCc2ccccc2)C(OCc2ccccc2)C1CNC(=O)Nc1cc(Cl)ccc1OC [Compound No. 15, 2,3,4-Tri-O-benzyl-6-N-{[3-chloro-6-methoxyphenyl]aminocarbonylamino}-N-propyl-D-gluco-δ-lactam] |
| 58.2 µM | 55.6 µM | 53.3 µM | 59.7 µM | 74.1 µM | 22.9 µM | CCCN1C(=O)[C@H](OCc2ccccc2)[C@@H](OCc2ccccc2)[C@H](OCc2ccccc2)[C@H]1CNC(=O)Nc1ccc(F)cc1F [Compound No. 16, 2,3,4-Tri-O-benzyl-6-N-{[2,4-difluorophenyl]aminocarbonylamino}-N-propyl-D-gluco-δ-lactam] |
